Laboratory results from the NIST ThermoML archive (doi:10.1021/acs.jced.8b00387).
Values joined by “and” are separate entries in the source; they are usually repeats but may differ in a detail not shown here. Identical values can stand only once.

Conditions: for viscosity / mass density / speed of sound: 102 kPa, Liquid; for viscosity: Concentric cylinders viscometry; for mass density: Vibrating tube method; for speed of sound: Frequency=3 MHz, Single path-length method; for surface tension liquid-gas: Pendant drop shape

CC(CC(C)(C)C)CC(C)(C)CC(C)(C)C (stereo not given) [2,2,4,4,6,8,8-heptamethylnonane]
Conditions | mass density [kg/m3] | speed of sound [m/s] | surface tension liquid-gas [mN/m] | viscosity [mPa·s]
253.15 K | 811.4 | – | – | 14.09
288.15 K | 787.76 | 1305.1 | – | –
293.15 K | 784.41 | 1285.9 | – | 3.75
294.7 K | – | – | 24.2 | –
303.15 K | 777.73 | 1248.3 | – | 2.97
313.15 K | 770.99 | 1211.7 | – | 2.4
323.15 K | 764.27 | 1175.9 | – | 1.97
333.15 K | 757.53 | 1141.3 | – | 1.65

CCCCCCc1ccccc1 [hexylbenzene]
Conditions | mass density | speed of sound | surface tension liquid-gas [mN/m] | viscosity
253.15 K | 888.9 kg/m3 and 889.1 kg/m3 | – | – | 4.56 mPa·s and 4.63 mPa·s
288.15 K | 862.3 kg/m3 and 862.4 kg/m3 | 1395.8 m/s and 1395.6 m/s | – | –
293.15 K | 858.5 kg/m3 and 858.6 kg/m3 | 1376 m/s and 1376.5 m/s | – | 1.64 mPa·s and 1.66 mPa·s
295 K | – | – | 29.3 | –
303.15 K | 850.9 kg/m3 and 851 kg/m3 | 1338.1 m/s and 1338.7 m/s | – | 1.39 mPa·s and 1.41 mPa·s
313.15 K | 843.3 kg/m3 and 843.4 kg/m3 | 1301.1 m/s and 1301.6 m/s | – | 1.17 mPa·s and 1.19 mPa·s
323.15 K | 845.7 kg/m3 and 835.8 kg/m3 | 1264.7 m/s and 1265.3 m/s | – | 1.03 mPa·s and 1.04 mPa·s
333.15 K | 828.1 kg/m3 and 828.2 kg/m3 | 1229.4 m/s and 1229.8 m/s | – | 0.9 mPa·s

CC(CC(C)(C)C)CC(C)(C)C [2,2,4,6,6-pentamethylheptane]
Conditions | mass density [kg/m3] | speed of sound [m/s] | surface tension liquid-gas [mN/m] | viscosity [mPa·s]
253.15 K | 775.8 | – | – | 3.08
288.15 K | 748.8 | 1223.7 | – | –
293.15 K | 745.2 | 1203.8 | – | 1.31
294 K | – | – | 22.1 | –
303.15 K | 737.9 | 1164.7 | – | 1.13
313.15 K | 730.6 | 1126.5 | – | 0.955
323.15 K | 723.2 | 1089.1 | – | 0.849
333.15 K | 715.8 | 1052.7 | – | 0.744

CCCCc1ccccc1 [butylbenzene]
Conditions | mass density [kg/m3] | speed of sound [m/s] | surface tension liquid-gas [mN/m] | viscosity [mPa·s]
253.15 K | 892.6 | – | – | 2.21
288.15 K | 864.47 | 1373.7 | – | –
293.15 K | 860.17 | 1353.2 | – | 1
295 K | – | – | 29 | –
303.15 K | 852.13 | 1314.3 | – | 0.88
313.15 K | 844.07 | 1276.1 | – | 0.775
323.15 K | 835.98 | 1238.4 | – | 0.687
333.15 K | 827.86 | 1201.5 | – | 0.615
